The target of the experiment is human EP3 receptor (Homo sapiens (Human), UniProt P43115). Briefly: EP3 Radioligand SPA Binding Assay. The settings on record: [3H]-PGE2 displacement, Millipore EP3 Chem1 membranes; geometric mean Ki, calculated from IC50 by Cheng-Prusoff. The method, then: EP3 Radioligand SPA Binding Assay
human EP3 receptor, sequence (P43115 whole entry): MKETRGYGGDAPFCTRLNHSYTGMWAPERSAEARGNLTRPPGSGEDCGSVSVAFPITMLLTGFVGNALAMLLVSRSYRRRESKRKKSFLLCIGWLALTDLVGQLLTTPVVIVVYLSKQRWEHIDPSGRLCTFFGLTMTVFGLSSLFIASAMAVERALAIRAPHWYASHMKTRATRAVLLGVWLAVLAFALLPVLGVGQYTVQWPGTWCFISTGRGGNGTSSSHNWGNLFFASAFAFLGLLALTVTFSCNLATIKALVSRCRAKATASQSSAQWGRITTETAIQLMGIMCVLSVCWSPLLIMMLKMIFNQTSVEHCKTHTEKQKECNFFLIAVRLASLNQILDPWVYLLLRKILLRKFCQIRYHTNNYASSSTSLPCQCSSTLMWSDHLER
Compound affinity was expressed as a […], defined as the concentration of compound required to decrease [^3H] PGE2 binding by 50% for a specific membrane batch at a given concentration of radioligand.
Test compounds were half log serially diluted in 100% DMSO (J. T. Baker #922401). 1 μL of each compound was added to appropriate wells of a 384-well plate (Matrix Cat #4322). Unlabeled PGE2 (Tocris Cat #2296) at a final concentration of 1 μM was used to determine non-specific binding. 1 μL of 100% DMSO (J. T. Baker #922401) was used to determine total binding. Millipore EP3 Chem1 membranes (prepared in-house from cell paste derived from the Millipore ChemiSCREEN™ Human Recombinant EP3 Prostanoid Receptor Calcium-Optimized Stable Cell Line (Millipore Cat #HTS092C. http://www.millipore.com/catalogue/item/hts092c)) were thawed and diluted in binding buffer (50 mM Hepes pH 7.4 (Lonza Cat #17-737), 5 mM MgCl2 (Sigma-M1028), and 0.1% BSA (Sigma A-7409)) to a final concentration of 1 μg/25 μL. 25 μL of diluted membranes were added to prepared compound plates. WGA coated PVT SPA Beads (Perkin Elmer Cat #RPNQ0060) were diluted in binding buffer to a concentration of 4 μg/ul, and 25 μL of the SPA bead mixture was then added to each well for a final assay concentration of 100 μg/well. [^3H]-PGE2 (Perkin Elmer Cat #NET428) was diluted in binding buffer to a concentration of […], and 25 μL was added to all wells for a final assay concentration of 1.125 nM. Plates were incubated for 30 minutes at r.t. (approximately 25° C.) with shaking. Radioactivity associated with each well was measured after a 10 hour incubation using a Wallac Trilux MicroBeta plate-based scintillation counter and a normalized protocol at 1 minute read/well. The Kd for [^3H]-PGE2 was determined by carrying out saturation binding, with data analysis by non-linear regression, fit to a one-site hyperbola (Graph Pad Prism). IC50 determinations were made from competition curves, analyzed with a proprietary curve fitting program (SIGHTS) and a 4-parameter logistic dose response equation. Ki values were calculated from IC50 values, using the Cheng-Prusoff equation.
Results are reported as geometric mean Ki values.
By Ki is commonly meant a dissociation constant, usually derived from enzyme kinetics or from competition with a known ligand. Turning to `Cn1ncc2c(Cl)cc(-c3ccc([C@@]4(C)CCCNC4=O)c(=O)[nH]3)cc21` [Example 2, (R)-6-(4-chloro-1-methyl-1H-indazol-6-yl)-3-(3-methyl-2-oxopiperidin-3-yl)pyridin-2(1H)-one], the Ki is 3.6 nM. The figure for `Cc1cc(-c2ccc([C@@]3(C)CCCNC3=O)c(=O)[nH]2)cc2c1cnn2C` [Example 12, (R)-6-(1,4-dimethyl-1H-indazol-6-yl)-3-(3-methyl-2-oxopiperidin-3-yl)pyridin-2(1H)-one] is 25 nM; for `C[C@]1(c2ccc(-c3cc(F)c4[nH]nc(C5CC5)c4c3)[nH]c2=O)CCCNC1=O` [Example 14, (R)-6-(3-cyclopropyl-7-fluoro-1H-indazol-5-yl)-3-(3-methyl-2-oxopiperidin-3-yl)pyridin-2(1H)-one] it is 29.2 nM. The value for `Cn1ncc2c(Cl)cc(-c3ccc([C@@]4(C)CCNC4=O)c(=O)[nH]3)cc21` [Example 8, (R)-6-(4-chloro-1-methyl-1H-indazol-6-yl)-3-(3-methyl-2-oxopyrrolidin-3-yl)pyridin-2(1H)-one] was 14.2 nM; that for `CCn1ncc2c(C)cc(-c3ccc([C@@]4(C)CCCNC4=O)c(=O)[nH]3)cc21` [Example 3, (R)-6-(1-ethyl-4-methyl-1H-indazol-6-yl)-3-(3-methyl-2-oxopiperidin-3-yl)pyridin-2(1H)-one] was 9.5 nM. The figure for `Cn1ccc2cc(-c3ccc([C@@]4(C)CCNC4=O)c(=O)[nH]3)cc(F)c21` [Example 9, (R)-6-(7-fluoro-1-methyl-1H-indol-5-yl)-3-(3-methyl-2-oxopyrrolidin-3-yl)pyridin-2(1H)-one] is 11.9 nM. As to `Cn1ccc2cc(-c3ccc([C@@]4(C)CCNC4=O)c(=O)[nH]3)ccc21` [Example 6, (R)-6-(1-methyl-1H-indol-5-yl)-3-(3-methyl-2-oxopyrrolidin-3-yl)pyridin-2(1H)-one], the Ki was 46 nM. The value for `CCn1ccc2ccc(-c3ccc([C@@]4(C)CCNC4=O)c(=O)[nH]3)cc21` [Example 10, (R)-6-(1-ethyl-1H-indol-6-yl)-3-(3-methyl-2-oxopyrrolidin-3-yl)pyridin-2(1H)-one] was 19.9 nM; that for `CCn1ncc2c(F)cc(-c3ccc([C@@]4(C)CCCNC4=O)c(=O)[nH]3)cc21` [Example 1, (R)-6-(1-ethyl-4-fluoro-1H-indazol-6-yl)-3-(3-methyl-2-oxopiperidin-3-yl)pyridin-2(1H)-one] was 2 nM; that for `Cn1ccc2cc(-c3ccc([C@@]4(C)CCCNC4=O)c(=O)[nH]3)ccc21` [Example 5, (R)-6-(1-methyl-1H-indol-5-yl)-3-(3-methyl-2-oxopiperidin-3-yl)pyridin-2(1H)-one] was 12.2 nM. The value for `Cn1ccc2ccc(-c3ccc([C@@]4(C)CCCNC4=O)c(=O)[nH]3)cc21` [Example 4, (R)-6-(1-methyl-1H-indol-6-yl)-3-(3-methyl-2-oxopiperidin-3-yl)pyridin-2(1H)-one] was 11.2 nM; that for `Cn1cnc2cc(-c3ccc([C@@]4(C)CCCNC4=O)c(=O)[nH]3)cc(Cl)c21` [Example 7, (R)-6-(7-chloro-1-methyl-1H-benzo[d]imidazol-5-yl)-3-(3-methyl-2-oxopiperidin-3-yl)pyridin-2(1H)-one] was 7.8 nM.
